From paper PMC4290723 (British Journal of Pharmacology, 2014)
Read-outs that look alike come from different tables or passages of the source.

Target: T1, RoDH4 (also named RDH16) (Homo sapiens, UniProt O75452)
T1 sequence (O75452 1-317): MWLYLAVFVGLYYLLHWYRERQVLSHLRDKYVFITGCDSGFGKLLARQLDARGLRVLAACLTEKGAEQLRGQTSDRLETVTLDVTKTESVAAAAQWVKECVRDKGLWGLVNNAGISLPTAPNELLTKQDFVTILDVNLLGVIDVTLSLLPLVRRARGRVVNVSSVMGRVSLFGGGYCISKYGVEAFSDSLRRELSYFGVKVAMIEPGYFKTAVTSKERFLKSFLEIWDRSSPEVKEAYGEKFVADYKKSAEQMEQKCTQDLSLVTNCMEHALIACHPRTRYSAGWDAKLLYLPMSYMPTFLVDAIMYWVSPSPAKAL
Experiment: single-concentration ([…]) inhibition of allopregnanolone oxidation by membranes of RoDH4-transfected HEK293 cells
Format: cell-based

remaining activity at 240 µM (HEK293; read-out: % control at 240 μM) [%] | SMILES | remaining activity at 240 µM (HEK293, read-out: % control at 240 μM) [%]
– | CN(C)CCCN1c2ccccc2CCc2ccccc21 [imipramine] | 25.45 ± 0.04
37.8 ± 0.95 | NCCC(Oc1ccc(C(F)(F)F)cc1)c1ccccc1 (centres unmarked) [norfluoxetine] | –
